Data reported in patent US9249208B2, “Citrulline peptides derived from fibrin and recognized by rheumatoid arthritis specific autoantibodies, and the use thereof” (Biomerieux, priority 2004, dated 2016).
Where no end group is shown, it is not given here. [ ]: non-standard residue; d: D form. Cit = NC(=O)NCCC[C@H](N)C(=O)O

Legend:
[1] = test system: anti-citrullinated protein autoantibodies (ACPAs); assay: ELISA of citrullinated/native fibrin peptide pairs with serum mixtures A and B and control mixture (delta OD); type: binding, human; conditions: mean of two determinations
Protocol: Each pair of peptides (citrullinated and noncitrullinated) was assayed by ELISA with a mixture, in equal parts, of 10 sera having no ACPAs (control mixture) and with the 2 mixtures A and B described in Example 1.
Each pair of peptides (native and citrullinated form) was tested on the same plate and a pair of control peptides—citrullinated “filaggrin” peptide cfc6 and its corresponding native peptide cf0 (Schellekens G A, 1998, mentioned above)—was included in each experiment, which made it possible to calculate an inter-assay coefficient of variation and to perform corrections.
All the incubations were carried out for 1 h at 4° C. and were followed by washing in PBS-0.1% Tween. The peroxidase activity was visualized with a solution of ortho-phenylenediamine (2 mg/ml—Sigma) in hydrogen peroxide (0.03%—Sigma). The reaction was stopped after 5 minutes by adding 4M sulfuric acid, and the optical density (OD) at 492 nm was measured by virtue of an automatic spectrophotometer (Multiskan, Thermo Labsystems).
The specific reactivity of the mixtures of sera with regard to the citrullinated peptides corresponded to the difference between the OD obtained with the citrullinated peptide and that obtained with the corresponding native peptide (delta OD). The results correspond to the mean of two determinations. Any citrullinated peptide making it possible to obtain a delta OD of greater than 0.250 for at least one of the two mixtures A and B after coating in at least one of the three buffers, was considered to be reactive.

[2] = test system: anti-citrullinated protein autoantibodies (ACPAs); assay: ELISA of reactive citrullinated fibrin peptides with the 20 individual sera of mixtures A and B; type: binding, human; conditions: for Number of positive sera: sera with delta OD not <0.25 out of sera tested (20, or 10 of mixture A only); for delta OD: best coating buffer per peptide
Protocol: The 14 peptides carrying the most reactive epitopes (delta OD≧0.5 for one or other of the mixtures of serum (A and B) with at least one of the three coating buffers) were tested independently with the 20 sera constituting the mixtures A and B, in order to evaluate the reactivity profile of each of these peptides. The tests were carried out by ELISA under the same conditions as in Example 2 above, with the exception that, for each pair of peptides, the coating buffer selected was that that had made it possible to obtain the strongest reactivity with respect to this peptide during the screening (the buffer for which the sum of the delta ODs obtained respectively for the serum mixtures A and B was at a maximum). […] Thus, for each serum, the dilution that made it possible to obtain an OD of 1 by ELISA on deiminated fibrinogen was selected (Nogueira L, 2002, mentioned above). The dilutions ranged from 1/20 to 1/2700.

[3] = Mixture A of sera 1/50, coating buffer PBS pH 7.4
[4] = Mixture A of sera 1/50, coating buffer acetate pH 5.0
[5] = Mixture A of sera 1/50, coating buffer carbonate pH 9.0
[6] = Mixture B of sera 1/50, coating buffer PBS pH 7.4
[7] = Mixture B of sera 1/50, coating buffer acetate pH 5.0
[8] = Mixture B of sera 1/50, coating buffer carbonate pH 9.0

Row | Substance | delta OD (citrullinated minus native peptide, 492 nm) [1, 3] | delta OD (citrullinated minus native peptide, 492 nm) [1, 4] | delta OD (citrullinated minus native peptide, 492 nm) [1, 5] | delta OD (citrullinated minus native peptide, 492 nm) [1, 6] | delta OD (citrullinated minus native peptide, 492 nm) [1, 7] | delta OD (citrullinated minus native peptide, 492 nm) [1, 8] | Number of positive sera [2] | delta OD ([2]; serum 97.0311, dilution 1/200) | delta OD ([2]; serum 97.0459, dilution 1/60) | delta OD ([2]; serum 97.0794, dilution 1/50) | delta OD ([2]; serum 97.1474, dilution 1/20) | also measured
1 | α36-50Cit38,42: citrullinated synthetic peptide, fibrin α-chain residues 36-50; fits SEQ ID NO: 2 GPX1VVEX2HQSACKDS (GP[Cit]VVE[Cit]HQSACKDS) | 2.69 | 4.00 | 3.43 | 2.65 | 4.27 | 2.64 | 12/20 | 0.71 | 3.55 | 3.43 | 1.93 | delta OD ([2]; serum 95.0256, dilution 1/35): 2.35; delta OD ([2]; serum 97.0323, dilution 1/120): 1.87; delta OD ([2]; serum 97.0388, dilution 1/50): 3.32; delta OD ([2]; serum 97.0524, dilution 1/200): 3.39; delta OD ([2]; serum 97.0530, dilution 1/50): 2.97; delta OD ([2]; serum 97.1436, dilution 1/150): 3.30; delta OD ([2]; serum 97.1715, dilution 1/300): 3.50; delta OD ([2]; serum 97.1795, dilution 1/50): 2.29
2 | α171-185Cit178,181: citrullinated synthetic peptide, fibrin α-chain residues 171-185; fits SEQ ID NO: 4 VDIDIKIX1SCX2GSCS (VDIDIKI[Cit]SC[Cit]GSCS; cysteine pairing not given here) | 0.29 | 0.15 | 0.75 | 0.21 | 0.08 | 0.47 | 9/20 | 1.95 | 0.29 | 2.09 | 1.08 | delta OD ([2]; serum 97.0468, dilution 1/700): 0.42; delta OD ([2]; serum 97.0524, dilution 1/200): 0.59; delta OD ([2]; serum 97.0907, dilution 1/300): 0.44; delta OD ([2]; serum 97.1548, dilution 1/60): 0.71; delta OD ([2]; serum 97.1795, dilution 1/50): 0.57
3 | α183-197Cit186,190: citrullinated synthetic peptide, fibrin α-chain residues 183-197 (second series) (SCS[Cit]ALA[Cit]EVDLKDY) | 1.68 | 0.41 | 1.36 | 0.15 | 0.01 | 0.07 | 3/10 | 0.87 | 3.21 | – | – | delta OD ([2]; serum 97.0506, dilution 1/75): 0.85
4 | α246-260Cit258: citrullinated synthetic peptide, fibrin α-chain residues 246-260 (PEWKALTDMPQM[Cit]ME) | 0.00 | 0.04 | 0.00 | 0.25 | 0.27 | 0.33 | – | – | – | – | – | –
5 | α259-273Cit263,271: citrullinated synthetic peptide, fibrin α-chain residues 259-273 (second series) (MELE[Cit]PGGNEIT[Cit]GG) | 0.60 | 0.14 | 0.12 | 0.69 | 0.21 | 0.20 | 13/20 | 0.29 | – | – | 0.39 | delta OD ([2]; serum 97.0468, dilution 1/700): 0.32
6 | α366-380Cit367: citrullinated synthetic peptide, fibrin α-chain residues 366-380 (E[Cit]GSAGHWTSESSVS) | 0.37 | 0.28 | 0.26 | 0.04 | 0.00 | 0.08 | – | – | – | – | – | –
7 | α396-410Cit404: citrullinated synthetic peptide, fibrin α-chain residues 396-410 (DSPGSGNA[Cit]PNNPDW) | 0.02 | 0.04 | 0.43 | 0.17 | 0.15 | 0.20 | – | – | – | – | – | –
8 | α411-425Cit425: citrullinated synthetic peptide, fibrin α-chain residues 411-425 (GTFEEVSGNVSPGT[Cit]) | 0.16 | 0.09 | 0.56 | 0.66 | 0.38 | 0.43 | 1/20 | – | – | – | – | delta OD ([2]; serum 97.1210, dilution 1/300): 0.84
9 | α501-515Cit510,512: citrullinated synthetic peptide, fibrin α-chain residues 501-515; fits SEQ ID NO: 3 SGIGTLDGFX1HX2HPD (SGIGTLDGF[Cit]H[Cit]HPD) | 0.92 | 0.16 | 0.15 | 2.60 | 0.72 | 0.79 | 9/20 | – | – | 3.30 | – | delta OD ([2]; serum 95.0256, dilution 1/35): 2.37; delta OD ([2]; serum 97.0323, dilution 1/120): 3.23; delta OD ([2]; serum 97.0388, dilution 1/50): 2.88; delta OD ([2]; serum 97.0506, dilution 1/75): 0.44; delta OD ([2]; serum 97.0524, dilution 1/200): 2.85; delta OD ([2]; serum 97.0530, dilution 1/50): 0.69; delta OD ([2]; serum 97.1436, dilution 1/150): 2.80; delta OD ([2]; serum 97.1715, dilution 1/300): 1.79
10 | α546-560Cit547: citrullinated synthetic peptide, fibrin α-chain residues 546-560 (S[Cit]GSESGIFTNTKES) | 0.74 | 0.38 | 0.33 | 0.15 | 0.05 | 0.16 | 2/10 | – | – | – | – | delta OD ([2]; serum 97.0530, dilution 1/50): 0.44; delta OD ([2]; serum 97.0796, dilution 1/500): 1.18
11 | α561-575Cit573: citrullinated synthetic peptide, fibrin α-chain residues 561-575 (SSHHPGIAEFPS[Cit]GK) | 0.30 | 0.05 | 0.01 | 0.52 | 0.14 | 0.17 | 5/20 | 0.30 | 0.38 | 1.95 | 0.71 | delta OD ([2]; serum 97.1548, dilution 1/60): 0.53
12 | β420-434Cit421: citrullinated synthetic peptide, fibrin β-chain residues 420-434 (P[Cit]KQCSKEDGGGWWY) | 0.48 | 0.36 | 0.44 | 0.00 | 0.00 | 0.00 | – | – | – | – | – | –
